The record followed here is US10358437B2, “Therapeutic compounds and uses thereof” (GENENTECH, INC., priority 2014, dated 2019).

Where a name gives a salt, the structure may show the parent alone.

This assay has as its target T1, PCAF bromodomain (Homo sapiens, UniProt Q92831).
T1 construct: Flag; made in house
T1 sequence (Q92831 719-832): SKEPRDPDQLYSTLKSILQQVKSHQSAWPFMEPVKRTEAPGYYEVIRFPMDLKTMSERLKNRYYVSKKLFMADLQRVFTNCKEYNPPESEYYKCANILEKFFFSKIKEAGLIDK
The experiment in a line: PCAF AlphaLisa binding assay. Conditions: His/Flag tagged PCAF719-832 bromodomain 225 nM, biotinylated small molecule ligand 6 nM. The procedure:
IC50 Measurements for Inhibitors Using PCAF AlphaLisa Binding Assay
His/Flag epitope tagged PCAF719-832 bromodomain was cloned, expressed and purified to homogeneity in-house. PCAF bromodomain binding and inhibition of the compounds disclosed herein was assessed by monitoring the engagement of biotinylated small molecule ligand (known to bind to the PCAF bromodomain) with the target using the AlphaLisa technology (Perkin-Elmer). Specifically, in a 384 well ProxiPlate PCAF bromodomain (225 nM final) was combined with the biotinylated small molecule ligand (6 nM final) in 50 mM HEPES (pH 7.5), 75 mM NaCl, 1 mM TCEP, 0.01% (w/v) BSA, and 0.008% (w/v) Brij-35 either in the presence of DMSO (final 0.2% DMSO) or compound dilution series in DMSO. After 15 minute incubation at room temperature AlphaLisa streptavidin acceptor beads and AlphaLisa anti-histidine donor beads were added to a final concentration of 12.5 μg/mL each.
PCAF IC50 values for the Examples 1-22 were determined using the general procedure described above.
For orientation: Bead proximity is the source of the signal in Alpha formats.

As usually defined, the IC50 is the midpoint of a concentration-inhibition curve. Low values mean inhibition by little substance, high ones a need for much substance.

`CN(C)[C@@H]1CCCC[C@H]1Nc1nn(C)c(=O)n(C)c1=O` (racemic) [Example 20, 6-(((1R,2R)-2-(dimethylamino)cyclohexyl)amino)-2,4-dimethyl-1,2,4-triazine-3,5(2H,4H)-dione]: the half-maximal inhibitory concentration (IC50) amounted to 230 nM. The compound `COc1ccc(C(CNc2nn(C)c(=O)n(C)c2=O)N(C)C)cc1` (racemic) [Example 6, 6-((2-(dimethylamino)-2-(4-methoxyphenyl)ethyl)amino)-2,4-dimethyl-1,2,4-triazine-3,5(2H,4H)-dione] gave an IC50 of 150 nM.

As to `CN1Cc2ccccc2CC1CNc1nn(C)c(=O)n(C)c1=O` (racemic) [Example 8, 2,4-dimethyl-6-[(2-methyl-3,4-dihydro-1H-isoquinolin-3-yl)methylamino]-1,2,4-triazine-3,5-dione], the IC50 was 380 nM. Against the preceding compound, the IC50 is about 2.5-fold higher. For `Cn1nc(NCC(c2ccccc2)N2CCCC2)c(=O)n(C)c1=O` (racemic) [Example 16, 2,4-dimethyl-6-((2-phenyl-2-(pyrrolidin-1-yl)ethyl)amino)-1,2,4-triazine-3,5(2H,4H)-dione] the value was 8100 nM; for `CN(C)C(CNc1nn(C)c(=O)n(C)c1=O)c1ccc(F)cc1` (racemic) [Example 4, 6-((2-(dimethylamino)-2-(4-fluorophenyl)ethyl)amino)-2,4-dimethyl-1,2,4-triazine-3,5(2H,4H)-dione], 280 nM. For `CN(CCNc1nn(C)c(=O)n(C)c1=O)CC(F)(F)F` [Example 1, 2,4-dimethyl-6-((2-(methyl(2,2,2-trifluoroethyl)amino)ethyl)amino)-1,2,4-triazine-3,5(2H,4H)-dione] the value was above 20000 nM; for `CN1c2ccccc2CCC1CNc1nn(C)c(=O)n(C)c1=O` (racemic) [Example 2, 2,4-dimethyl-6-(((1-methyl-1,2,3,4-tetrahydroquinolin-2-yl)methyl)amino)-1,2,4-triazine-3,5(2H,4H)-dione], above 20000 nM.

In turn, `CN(C)[C@H]1CCCC[C@H]1Nc1nn(C)c(=O)n(C)c1=O` (racemic) [Example 19, 6-((2-(dimethylamino)cyclohexyl)amino)-2,4-dimethyl-1,2,4-triazine-3,5(2H,4H)-dione hydrochloride] gave a concentration for half-maximal inhibition (IC50) of 1100 nM.

Compound `CN(CCNc1nn(C)c(=O)n(C)c1=O)Cc1ccccc1` [Example 9, 6-((2-(benzyl(methyl)amino)ethyl)amino)-2,4-dimethyl-1,2,4-triazine-3,5(2H,4H)-dione] came in with an IC50 of 7500 nM.

On to `Cn1nc(N2CCNC(c3ccccc3)C2)c(=O)n(C)c1=O` (racemic) [Example 13, 2,4-dimethyl-6-(3-phenylpiperazin-1-yl)-1,2,4-triazine-3,5(2H,4H)-dione], for which the IC50 was above 20000 nM. In turn, `C[C@H](Nc1nn(C)c(=O)n(C)c1=O)[C@H](c1ccccc1)N(C)C` (single isomer, unassigned) [Example 17] gave an IC50 of 120 nM. `CN(C)C(CNc1nn(C)c(=O)n(C)c1=O)c1ccc(C(F)(F)F)cc1` (racemic) [Example 14, 6-((2-(dimethylamino)-2-(4-(trifluoromethyl)phenyl)ethyl)amino)-2,4-dimethyl-1,2,4-triazine-3,5(2H,4H)-dione] returned a half-inhibitory concentration (IC50) of 250 nM. The same measure for `C[C@H](Nc1nn(C)c(=O)n(C)c1=O)[C@H](c1ccc(S(=O)(=O)c2ccccc2)cc1)N(C)C` (single isomer, unassigned) [Example 18]: 70 nM.

The compound `CN(C)CCN(C)c1nn(C)c(=O)n(C)c1=O` [Example 7, 6-((2-(dimethylamino)ethyl)(methyl)amino)-2,4-dimethyl-1,2,4-triazine-3,5(2H,4H)-dione (trifluoroacetic acid salt)] returned an IC50 of 37000 nM. Compared with the last compound, the IC50 is about 530-fold higher. For `CN(C)C(CNc1nn(C)c(=O)n(C)c1=O)c1cccc(Cl)c1` (racemic) [Example 10, 6-((2-(3-chlorophenyl)-2-(dimethylamino)ethyl)amino)-2,4-dimethyl-1,2,4-triazine-3,5(2H,4H)-dione] the value was 430 nM. For `CCn1nc(NCC(c2ccccc2)N(C)C)c(=O)n(CC)c1=O` (racemic) [Example 22, 6-((2-(dimethylamino)-2-phenylethyl)amino)-2,4-diethyl-1,2,4-triazine-3,5(2H,4H)-dione] the value was 12000 nM; for `CN(C)C(C)(CNc1nn(C)c(=O)n(C)c1=O)c1ccccc1` (racemic) [Example 15, 6-((2-(dimethylamino)-2-phenylpropyl)amino)-2,4-dimethyl-1,2,4-triazine-3,5(2H,4H)-dione], 480 nM; for `CN(C)C(CNc1nn(C)c(=O)n(C)c1=O)Cc1ccccc1` (racemic) [Example 11, 6-((2-(dimethylamino)-3-phenylpropyl)amino)-2,4-dimethyl-1,2,4-triazine-3,5(2H,4H)-dione], 1400 nM. For the compound `Cn1nc(NCCNc2ccccc2)c(=O)n(C)c1=O` [Example 5, 2,4-dimethyl-6-((2-(phenylamino)ethyl)amino)-1,2,4-triazine-3,5(2H,4H)-dione], the IC50 was found to be 65000 nM. For `CN1CCc2ccccc2C1CNc1nn(C)c(=O)n(C)c1=O` (racemic) [Example 21, 2,4-dimethyl-6-(((2-methyl-1,2,3,4-tetrahydroisoquinolin-1-yl)methyl)amino)-1,2,4-triazine-3,5(2H,4H)-dione] the value was 1200 nM. `CN1CCCC1CNc1nn(C)c(=O)n(C)c1=O` (racemic) [Example 3, 2,4-dimethyl-6-(((1-methylpyrrolidin-2-yl)methyl)amino)-1,2,4-triazine-3,5(2H,4H)-dione] showed an IC50 of 2500 nM. For `CN(C)C1CCCN(c2nn(C)c(=O)n(C)c2=O)C1` (racemic) [Example 12, 6-(3-(dimethylamino)piperidin-1-yl)-2,4-dimethyl-1,2,4-triazine-3,5(2H,4H)-dione] the value was above 20000 nM.
